Data on 34 compounds can be found in US20250353858A1, “CONDENSED HETEROCYCLIC COMPOUNDS AS INHIBITOR OF DIACYLGLYCEROL KINASES” (BEONE MEDICINES I GMBH, priority 2023, published 2025).

One experiment addresses DGKα (Homo sapiens (Human), UniProt P23743). Description: Biochemical DGK IC50 assay (ADP-Glo, lipid micelle substrate), DGKα. Further: full length DGKα 7.5 nM. As to conditions: full length DGKα […], ATP 140 μM, DAG 80 μM. How it is done:
(§1) Enzymatic reactions of DGKζ, DGKα and DGKδ were performed using ADP-Glo assay with lipid micelle substrate. […] Full length DGKα (D21-10BG, SignalChem) and full length DGKδ (D23-10G, SignalChem) were purchased. Lipid micelle was prepared by dissolving DAG (Sigma, 317505-10MG) and PS (Sigma, P7769-100MG) with chloroform which was furtherly removed by rotary evaporation. The resulted product was resuspended in buffer containing 25 mM HEPES pH 7.0, 0.5 mM EDTA and 160 mM Octyl β-D glucopyranoside by vigorous mixing and ultrasonic (IID, Scientz).
(§2) The inhibition activities testing for the compound disclosed herein were carried out at room temperature in assay buffer containing 50 mM HEPES, 10 mM MgCl2, 0.01% BSA, 0.1 mM Na3VO4, 0.005% Tween-20 and 0.01 mM CaCl2. Compounds in DMSO were dispensed into wells of a black 384 well plate (Corning 4514) using D300e digital dispenser (Tecan). […] 3 μL 2× enzyme solution was added to wells. […] After 1 hour reaction, 5 μL ADP-Glo reagent (Promga V9101) was added and incubated for 40 minutes. 10 μL Kinase Detection reagent was added and incubated for 30 minutes. Luminescence was measured on a microplate reader (PHERAstar FSX, BMG labtech). The IC50s are calculated based on inhibition of enzyme activity in the presence of increasing concentrations of compounds.

The target of another experiment is DGKζ (Homo sapiens (Human), UniProt Q13574). Description: Biochemical DGK IC50 assay (ADP-Glo, lipid micelle substrate), DGKζ. The settings on record: full length DGKζ 0.5 nM, ATP 140 μM, DAG 80 μM. The protocol: as §1, §2
Chain of DGKζ (Q13574 other isoform, or with tags, fused parts or gaps): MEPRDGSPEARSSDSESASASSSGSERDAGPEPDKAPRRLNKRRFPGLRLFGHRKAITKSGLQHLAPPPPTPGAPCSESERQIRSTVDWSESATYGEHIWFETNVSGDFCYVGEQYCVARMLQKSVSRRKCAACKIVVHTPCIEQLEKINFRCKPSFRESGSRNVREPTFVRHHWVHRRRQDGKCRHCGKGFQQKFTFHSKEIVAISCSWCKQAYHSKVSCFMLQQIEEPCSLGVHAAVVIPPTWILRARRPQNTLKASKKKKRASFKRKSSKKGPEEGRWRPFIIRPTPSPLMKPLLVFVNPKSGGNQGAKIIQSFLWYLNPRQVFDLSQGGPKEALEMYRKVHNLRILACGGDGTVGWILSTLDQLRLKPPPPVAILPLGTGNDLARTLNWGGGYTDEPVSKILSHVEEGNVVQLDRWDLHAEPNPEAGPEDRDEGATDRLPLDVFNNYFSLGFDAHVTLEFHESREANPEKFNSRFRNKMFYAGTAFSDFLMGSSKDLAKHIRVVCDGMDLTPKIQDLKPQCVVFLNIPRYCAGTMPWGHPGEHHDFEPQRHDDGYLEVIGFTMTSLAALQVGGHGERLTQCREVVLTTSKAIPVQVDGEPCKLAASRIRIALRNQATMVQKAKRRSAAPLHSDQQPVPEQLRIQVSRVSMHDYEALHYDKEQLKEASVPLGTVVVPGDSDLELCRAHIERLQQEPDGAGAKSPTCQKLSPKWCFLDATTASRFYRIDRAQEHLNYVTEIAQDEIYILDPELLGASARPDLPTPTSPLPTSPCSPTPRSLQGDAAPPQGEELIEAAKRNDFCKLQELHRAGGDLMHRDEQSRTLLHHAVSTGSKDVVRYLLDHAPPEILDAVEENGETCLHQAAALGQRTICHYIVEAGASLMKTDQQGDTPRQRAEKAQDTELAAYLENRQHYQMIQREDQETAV
Human His-TEV-DGK-zeta-pFastBac1 and human baculovirus samples was generated using the Bac-to-Bac baculovirus expression system (Invitrogen) according to the manufacturer's protocol. The DNA used for expression of DGK-zeta, have SEQ ID Nos: 1. Baculovirus amplification was achieved using infected SF9 cells at 1:2000 virus/cells ratios, and grown for 96 hours at 27° C. post-transfected.
Full length human DGKζ produced as described above, was purified from Sf9 baculovirus-infected insect cell paste. The cells were lysed using sonication method, and the lysates were clarified by centrifugation.
For orientation: In ADP-Glo the light output rises with the ADP produced.

Broadly, the IC50 is the point on the concentration scale where inhibition reaches its midpoint. Lower therefore signals inhibition by little substance.

Chain of DGKα (P23743 whole entry): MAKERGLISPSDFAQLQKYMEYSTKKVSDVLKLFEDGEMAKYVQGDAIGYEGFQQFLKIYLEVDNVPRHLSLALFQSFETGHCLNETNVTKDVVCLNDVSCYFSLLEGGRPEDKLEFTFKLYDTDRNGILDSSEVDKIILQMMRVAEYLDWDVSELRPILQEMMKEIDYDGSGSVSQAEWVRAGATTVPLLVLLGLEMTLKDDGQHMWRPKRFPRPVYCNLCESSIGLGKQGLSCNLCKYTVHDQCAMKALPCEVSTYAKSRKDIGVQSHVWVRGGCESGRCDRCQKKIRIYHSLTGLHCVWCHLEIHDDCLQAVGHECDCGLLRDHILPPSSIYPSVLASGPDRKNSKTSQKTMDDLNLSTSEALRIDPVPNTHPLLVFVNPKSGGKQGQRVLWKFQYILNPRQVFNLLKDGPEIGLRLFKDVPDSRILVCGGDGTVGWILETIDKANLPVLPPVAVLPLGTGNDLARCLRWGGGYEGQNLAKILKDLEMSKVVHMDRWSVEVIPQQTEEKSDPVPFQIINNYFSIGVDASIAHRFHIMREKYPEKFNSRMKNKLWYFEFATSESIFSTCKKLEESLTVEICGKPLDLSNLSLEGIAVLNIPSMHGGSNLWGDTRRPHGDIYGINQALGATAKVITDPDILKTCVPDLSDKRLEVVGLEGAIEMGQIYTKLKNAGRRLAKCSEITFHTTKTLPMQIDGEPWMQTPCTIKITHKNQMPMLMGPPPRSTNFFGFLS

For the compound `CC(c1ccc2nccnc2c1)N1C[C@H](C)N(c2cc(=O)n(C)c3cc(CC#N)nn23)C[C@H]1C` (mixture of isomers) [Compound A2, 2-(7-((2S,5R)-2,5-dimethyl-4-(1-(quinoxalin-6-yl)ethyl)piperazin-1-yl)-4-methyl-5-oxo-4,5-dihydropyrazolo[1,5-a]pyrimidin-2-yl)acetonitrile], the IC50 against DGKα was 3120 nM; at DGKζ, 50 nM.
Taken in the same sequence, the figures for `CC(c1ccc2nccnc2c1)N1C[C@H](C)N(c2cc(=O)n(C)c3cc(CC#N)nn23)C[C@H]1C` (single isomer, unassigned) [Compound A2a] were more than 10000 nM and 1710 nM.
Taken in the same sequence, the figures for `CC(c1ccc2nccnc2c1)N1C[C@H](C)N(c2cc(=O)n(C)c3cc(CC#N)nn23)C[C@H]1C` (single isomer, unassigned) [Compound A2b] were 6050 nM and 32 nM.
On to `CC[C@@H]1CN(c2cc(=O)[nH]c3cc(CC#N)nn23)[C@@H](C)CN1C(C)c1ccc2nccnc2c1` (single isomer, unassigned) [Compound A4a], for which the IC50 was 64900 nM against DGKα and 153 nM against DGKζ.
Taken in the same sequence, the figures for `CC[C@@H]1CN(c2cc(=O)[nH]c3cc(CC#N)nn23)[C@@H](C)CN1C(C)c1ccc2nccnc2c1` (single isomer, unassigned) [Compound A4b] were more than 10000 nM and 7390 nM.
Taken in the same sequence, the figures for `CC(c1ccc2c(c1)OC(C)(C)CO2)N1C[C@H](C)N(c2c(C#N)c(=O)n(C)c3cc(CC#N)nn23)C[C@H]1C` (single isomer, unassigned) [Compound A12a] were 12500 nM and 11 nM.
Consider `CC(c1ccc2c(c1)OC(C)(C)CO2)N1C[C@H](C)N(c2c(C#N)c(=O)n(C)c3cc(CC#N)nn23)C[C@H]1C` (single isomer, unassigned) [Compound A12b], for which the IC50 came out at 10400 nM against DGKα and 1150 nM against DGKζ.
The corresponding values for `CC[C@@H]1CN(c2c(F)c(=O)n(C)c3cc(CC#N)nn23)[C@@H](C)CN1C(C)c1ccc(C2CC2)nc1` (single isomer, unassigned) [Compound A24a] are 2670 nM and 3870 nM.
Consider `CC[C@@H]1CN(c2c(F)c(=O)n(C)c3cc(CC#N)nn23)[C@@H](C)CN1C(C)c1ccc(C2CC2)nc1` (single isomer, unassigned) [Compound A24b], for which the IC50 against DGKα was determined as 4480 nM; against DGKζ it was 2650 nM.
Taken in the same sequence, the figures for `CC[C@@H]1CN(c2cc(=O)n(C)c3cc(CC#N)nn23)[C@@H](C)CN1C(C)c1ccc2ncsc2c1` (single isomer, unassigned) [Compound A28a] were 233 nM and 21 nM.
Consider `CC[C@@H]1CN(c2cc(=O)n(C)c3cc(CC#N)nn23)[C@@H](C)CN1C(C)c1ccc2ncsc2c1` (single isomer, unassigned) [Compound A28b], for which the values for the IC50 against DGKα and at DGKζ were 1470 nM and 2220 nM, respectively.
`CC[C@@H]1CN(c2cc(=O)n(C)c3cc(CC#N)nn23)[C@@H](C)CN1[C@@H](C)c1ccc2ncsc2n1` (single isomer, unassigned) [Compound A29a]: the figures for the IC50 against DGKα and on DGKζ were 212 nM and 42 nM, respectively.
Taken in the same sequence, the figures for `CC[C@@H]1CN(c2cc(=O)n(C)c3cc(CC#N)nn23)[C@@H](C)CN1[C@H](C)c1ccc2ncsc2n1` (single isomer, unassigned) [Compound A29b] were 1590 nM and 1540 nM.
The corresponding values for `CC(c1ccc2nccnc2c1)N1CCC(c2cc(=O)n(C)c3cc(CC#N)nn23)C[C@H]1C` (single isomer, unassigned) [Compound A33a] are more than 10000 nM and more than 10000 nM.
Taken in the same sequence, the figures for `CC(c1ccc2nccnc2c1)N1CCC(c2cc(=O)n(C)c3cc(CC#N)nn23)C[C@@H]1C` (single isomer, unassigned) [Compound A34a] were more than 150000 nM and 5710 nM.
Regarding `CC(c1ccc2nccnc2c1)N1CCC(c2cc(=O)n(C)c3cc(CC#N)nn23)C[C@@H]1C` (single isomer, unassigned) [Compound A34b], the results for the IC50 against DGKα and at DGKζ were more than 150000 nM and more than 10000 nM, respectively.
In the case of `CC[C@H]1CN(C(C)c2ccc3nc(C)sc3n2)[C@H](CC)CN1c1cc(=O)n(C)c2cc(CC#N)nn12` (single isomer, unassigned) [Compound A35a], the half-maximal inhibitory concentration (IC50) against DGKα came out at 2260 nM; at DGKζ, 4690 nM.
Taken in the same sequence, the figures for `CC[C@H]1CN(C(C)c2ccc3nc(C)sc3n2)[C@H](CC)CN1c1cc(=O)n(C)c2cc(CC#N)nn12` (single isomer, unassigned) [Compound A35b] were 72 nM and 31 nM.
Taken in the same sequence, the figures for `CC[C@H]1CN(C(C)c2ccc3cc(C(F)F)sc3n2)[C@H](CC)CN1c1cc(=O)n(C)c2cc(CC#N)nn12` (single isomer, unassigned) [Compound A37a] were 200 nM and 1580 nM.
As to `CC[C@H]1CN(C(C)c2ccc3cc(C(F)F)sc3n2)[C@H](CC)CN1c1cc(=O)n(C)c2cc(CC#N)nn12` (single isomer, unassigned) [Compound A37b], the IC50 at DGKα was determined as 24 nM; at DGKζ it was 83 nM.
Take `CC[C@H]1CN(C(C)c2ccc3nc(C)cn3n2)[C@H](CC)CN1c1cc(=O)n(C)c2cc(CC#N)nn12` (single isomer, unassigned) [Compound A38a]: the 50% inhibitory concentration (IC50) was 3880 nM against DGKα and more than 10000 nM against DGKζ.
With `CC[C@H]1CN(C(C)c2ccc3nc(C)cn3n2)[C@H](CC)CN1c1cc(=O)n(C)c2cc(CC#N)nn12` (single isomer, unassigned) [Compound A38b], the IC50 on DGKα amounted to 205 nM; at DGKζ it was 469 nM.
On to `CC[C@H]1CN(C(C)c2ccn3nccc3n2)[C@H](CC)CN1c1cc(=O)n(C)c2cc(CC#N)nn12` (single isomer, unassigned) [Compound A39a], for which the IC50 against DGKα was 585 nM; at DGKζ, more than 10000 nM.
The corresponding values for `CC[C@H]1CN(C(C)c2ccn3nccc3n2)[C@H](CC)CN1c1cc(=O)n(C)c2cc(CC#N)nn12` (single isomer, unassigned) [Compound A39b] are 52 nM and 104 nM.
Taken in the same sequence, the figures for `CC[C@H]1CN(C(C)c2ccn3nc(C)cc3n2)[C@H](CC)CN1c1cc(=O)n(C)c2cc(CC#N)nn12` (single isomer, unassigned) [Compound A40a] were 1540 nM and 5770 nM.
Turning to `CC[C@H]1CN(C(C)c2ccn3nc(C)cc3n2)[C@H](CC)CN1c1cc(=O)n(C)c2cc(CC#N)nn12` (single isomer, unassigned) [Compound A40b], the results for the IC50 against DGKα and against DGKζ were 61 nM and 53 nM, respectively.
As for `CC[C@H]1CN(C(C)c2ccn3nc(F)cc3n2)[C@H](CC)CN1c1cc(=O)n(C)c2cc(CC#N)nn12` (single isomer, unassigned) [Compound A41a], the half-maximal inhibitory concentration (IC50) turned out to be 25 nM against DGKα and 80 nM at DGKζ.
For the compound `CC[C@H]1CN(C(C)c2ccn3nc(F)cc3n2)[C@H](CC)CN1c1cc(=O)n(C)c2cc(CC#N)nn12` (single isomer, unassigned) [Compound A41b], the values for the IC50 at DGKα and at DGKζ were 1590 nM and 4560 nM, respectively.
The corresponding values for `CC[C@H]1CN(C(C)c2ccc3nc(C)cn3n2)[C@H](CC)CN1c1nc(=O)n(C)c2cc(CC#N)nn12` (single isomer, unassigned) [Compound A45a] are 1880 nM and more than 10000 nM.
For `CC[C@H]1CN(C(C)c2ccc3nc(C)cn3n2)[C@H](CC)CN1c1nc(=O)n(C)c2cc(CC#N)nn12` (single isomer, unassigned) [Compound A45b], the IC50 against DGKα stood at 66 nM; against DGKζ, 116 nM.
Consider `CC[C@H]1CN(C(C)c2ccc3nc(C)c(F)n3n2)[C@H](CC)CN1c1nc(=O)n(C)c2cc(CC#N)nn12` (single isomer, unassigned) [Compound A48a], for which the IC50 against DGKα is 5330 nM; against DGKζ it was more than 10000 nM.
Taken in the same sequence, the figures for `CC[C@H]1CN(C(C)c2ccc3nc(C)c(F)n3n2)[C@H](CC)CN1c1nc(=O)n(C)c2cc(CC#N)nn12` (single isomer, unassigned) [Compound A48b] were 63 nM and 24 nM.
Take `CC[C@H]1CN(C(C)c2ccc3nc(C)sc3c2)[C@H](CC)CN1c1nc(=O)n(C)c2cc(CC#N)nn12` (single isomer, unassigned) [Compound A53a]: the figures for the IC50 against DGKα and against DGKζ were 114 nM and 20 nM, respectively.
Taken in the same sequence, the figures for `CC[C@H]1CN(C(C)c2ccc3nc(C)sc3c2)[C@H](CC)CN1c1nc(=O)n(C)c2cc(CC#N)nn12` (single isomer, unassigned) [Compound A53b] were 947 nM and 552 nM.
